Laboratory results from patent US9452986B2, “6-heteroaryloxy- or 6-aryloxy-quinoline-2-carboxamides and method of use” (AbbVie Inc., priority 2014, dated 2016).
pIC50: −log10 of the molar value. Read-outs that look alike come from different tables or passages of the source.

Target: recombinant human Nav1.7 (Homo sapiens (Human), UniProt Q15858)
Experiment: FRET-based membrane potential assay, recombinant human sodium channel Nav1.7
Type: cell-based
Settings: read-out: FRET-Membrane Potential Nav1.7 IC50
How it was run: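 Channel activation used veratridine at its EC80, set by a dilution curve each experiment, together with Leiurus scorpion venom, added 3 min after compound. Membrane-potential ratio signals from FLIPR Tetra in HEPES-buffered HBSS were fitted to a four-parameter Hill equation for percent inhibition and IC50.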

[1] = HEK293 cells stably expressing recombinant human Nav1.7, veratridine + scorpion venom depolarization

recombinant human Nav1.7, sequence (Q15858 whole entry): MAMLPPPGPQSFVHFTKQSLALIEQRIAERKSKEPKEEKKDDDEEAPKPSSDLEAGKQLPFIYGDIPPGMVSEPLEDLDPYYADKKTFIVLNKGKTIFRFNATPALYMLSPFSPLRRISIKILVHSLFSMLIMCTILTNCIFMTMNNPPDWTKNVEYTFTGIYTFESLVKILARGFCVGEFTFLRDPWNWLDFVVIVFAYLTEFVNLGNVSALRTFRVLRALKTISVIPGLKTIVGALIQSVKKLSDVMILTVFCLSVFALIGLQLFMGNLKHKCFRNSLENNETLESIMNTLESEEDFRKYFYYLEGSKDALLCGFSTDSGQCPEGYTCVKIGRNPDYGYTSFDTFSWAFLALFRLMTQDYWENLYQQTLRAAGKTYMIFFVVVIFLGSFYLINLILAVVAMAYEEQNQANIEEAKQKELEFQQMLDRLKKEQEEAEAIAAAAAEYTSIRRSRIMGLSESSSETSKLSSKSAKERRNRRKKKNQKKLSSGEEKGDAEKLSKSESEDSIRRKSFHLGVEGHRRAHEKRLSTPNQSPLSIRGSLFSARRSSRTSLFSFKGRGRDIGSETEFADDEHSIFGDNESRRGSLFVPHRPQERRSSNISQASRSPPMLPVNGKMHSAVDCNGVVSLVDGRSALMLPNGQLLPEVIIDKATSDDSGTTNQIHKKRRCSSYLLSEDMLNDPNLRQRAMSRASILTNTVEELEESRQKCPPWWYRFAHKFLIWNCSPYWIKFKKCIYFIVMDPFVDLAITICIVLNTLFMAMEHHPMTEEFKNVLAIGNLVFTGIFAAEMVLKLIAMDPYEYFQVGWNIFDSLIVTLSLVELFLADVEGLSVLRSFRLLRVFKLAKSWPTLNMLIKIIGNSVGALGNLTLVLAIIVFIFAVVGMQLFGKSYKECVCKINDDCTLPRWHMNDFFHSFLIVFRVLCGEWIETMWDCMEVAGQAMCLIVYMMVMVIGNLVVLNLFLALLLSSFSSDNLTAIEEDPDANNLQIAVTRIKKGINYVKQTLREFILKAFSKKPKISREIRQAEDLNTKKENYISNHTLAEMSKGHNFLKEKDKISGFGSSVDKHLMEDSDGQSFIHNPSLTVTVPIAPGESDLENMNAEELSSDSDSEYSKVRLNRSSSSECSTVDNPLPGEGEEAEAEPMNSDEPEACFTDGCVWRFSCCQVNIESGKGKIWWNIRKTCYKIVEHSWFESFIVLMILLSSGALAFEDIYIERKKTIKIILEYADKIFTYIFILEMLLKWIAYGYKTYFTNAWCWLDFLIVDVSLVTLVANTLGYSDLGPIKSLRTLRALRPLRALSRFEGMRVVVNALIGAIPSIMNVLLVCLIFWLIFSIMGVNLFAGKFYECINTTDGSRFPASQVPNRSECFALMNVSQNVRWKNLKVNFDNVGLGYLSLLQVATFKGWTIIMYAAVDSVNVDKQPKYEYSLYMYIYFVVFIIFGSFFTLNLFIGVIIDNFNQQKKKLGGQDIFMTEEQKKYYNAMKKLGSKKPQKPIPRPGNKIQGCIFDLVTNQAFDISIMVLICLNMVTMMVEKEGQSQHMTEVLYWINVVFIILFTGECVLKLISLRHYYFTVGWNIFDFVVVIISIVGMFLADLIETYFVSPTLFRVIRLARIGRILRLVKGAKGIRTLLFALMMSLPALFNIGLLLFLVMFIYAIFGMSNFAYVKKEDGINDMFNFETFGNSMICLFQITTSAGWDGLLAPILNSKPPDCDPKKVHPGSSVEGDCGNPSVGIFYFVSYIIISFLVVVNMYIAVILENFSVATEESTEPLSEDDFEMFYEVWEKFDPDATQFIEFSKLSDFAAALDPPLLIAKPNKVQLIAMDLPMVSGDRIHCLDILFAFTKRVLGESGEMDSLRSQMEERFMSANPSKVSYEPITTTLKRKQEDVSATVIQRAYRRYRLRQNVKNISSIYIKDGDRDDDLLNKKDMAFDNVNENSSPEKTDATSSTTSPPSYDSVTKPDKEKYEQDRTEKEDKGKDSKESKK

Row | SMILES | pIC50 [1] | pIC50
1 | O=C(c1ccc2cc(Oc3ccc(C(F)(F)F)cn3)ccc2n1)N1C[C@H]2CNC[C@H]2C1 [Example 164, (3 aR,6aS)-hexahydropyrrolo[3,4-c]pyrrol-2(1H)-yl(6-{[5-(trifluoromethyl)pyridin-2-yl]oxy}quinolin-2-yl)methanone] | 4.90 | 
2 | O=C(c1ccc2cc(Oc3ccc(C(F)(F)F)cn3)ccc2n1)N1CCC(N2CCOCC2)C1 (stereo not shown) [Example 316, [3-(morpholin-4-yl)pyrrolidin-1-yl](6-{[5-(trifluoromethyl)pyridin-2-yl]oxy}quinolin-2-yl)methanone] |  | 4.92
3 | CN1CCC(NC(=O)c2ccc3cc(Oc4ccc(C#N)cc4)ccc3n2)C1=O (stereo not shown) [Example 143, 6-(4-cyanophenoxy)-N-(1-methyl-2-oxopyrrolidin-3-yl)quinoline-2-carboxamide] | 5.97 | 
4 | CC(C)[C@H](CO)NC(=O)c1ccc2cc(Oc3ccc(C#N)cc3)ccc2n1 [Example 91, 6-(4-cyanophenoxy)-N-[(2R)-1-hydroxy-3-methylbutan-2-yl]quinoline-2-carboxamide] | 5.49 | 
5 | N#Cc1ccc(Oc2ccc3nc(C(=O)NC4CCCOC4)ccc3c2)cc1 (stereo not shown) [Example 116, 6-(4-cyanophenoxy)-N-(tetrahydro-2H-pyran-3-yl)quinoline-2-carboxamide] | 5.99 | 
6 | COCO[C@H]1CN(C(=O)c2ccc3cc(Oc4ccc(C(F)(F)F)cn4)ccc3n2)C[C@H]1O (relative stereo) [Example 368, [cis-3-hydroxy-4-(methoxymethoxy)pyrrolidin-1-yl](6-{[5-(trifluoromethyl)pyridin-2-yl]oxy}quinolin-2-yl)methanone] | 5.90 | 
7 | O=C(c1ccc2cc(Oc3ccc(C(F)(F)F)cn3)ccc2n1)N1CC[C@H](O)C1 [Example 283, [(3S)-3-hydroxypyrrolidin-1-yl](6-{[5-(trifluoromethyl)pyridin-2-yl]oxy}quinolin-2-yl)methanone] | 4.96 | 
8 | COC(C)CNC(=O)c1ccc2cc(Oc3ccc(C(F)(F)F)cn3)ccc2n1 (stereo not shown) [Example 590, N-(2-methoxypropyl)-6-{[5-(trifluoromethyl)pyridin-2-yl]oxy}quinoline-2-carboxamide] | 6.00 | 
9 | O=C(c1ccc2cc(Oc3ccc(C(F)(F)F)cn3)ccc2n1)N1CCN(C2COC2)CC1 [Example 252, [4-(oxetan-3-yl)piperazin-1-yl](6-{[5-(trifluoromethyl)pyridin-2-yl]oxy}quinolin-2-yl)methanone] | < 4.70 | 
10 | N#Cc1ccc(Oc2ccc3nc(C(=O)NC4CCNC(=O)C4)ccc3c2)cc1 (stereo not shown) [Example 484, 6-(4-cyanophenoxy)-N-(2-oxopiperidin-4-yl)quinoline-2-carboxamide] |  | 6.06
11 | O=C(NCC(F)F)c1ccc2cc(Oc3ccc(C(F)(F)F)cn3)ccc2n1 [Example 347, N-(2,2-difluoroethyl)-6-{[5-(trifluoromethyl)pyridin-2-yl]oxy}quinoline-2-carboxamide] | 5.58 | 
12 | O=C(c1ccc2cc(Oc3ccc(C(F)(F)F)cc3)ccc2n1)N1CCNCC1 [Example 249, piperazin-1-yl {6-[4-(trifluoromethyl)phenoxy]quinolin-2-yl}methanone] |  | 6.04
13 | O=C(c1ccc2cc(Oc3ccc(C(F)(F)F)cn3)ccc2n1)N1CC=CC1 [Example 220, 2,5-dihydro-1H-pyrrol-1-yl(6-{[5-(trifluoromethyl)pyridin-2-yl]oxy}quinolin-2-yl)methanone] | 5.70 | 
14 | CC1(CN2CCN(C(=O)c3ccc4cc(Oc5ccc(C(F)(F)F)cn5)ccc4n3)CC2)COC1 [Example 286, {4-[(3-methyloxetan-3-yl)methyl]piperazin-1-yl}(6-{[5-(trifluoromethyl)pyridin-2-yl]oxy}quinolin-2-yl)methanone] | 4.94 | 
15 | O=C(c1ccc2cc(Oc3ccc(C(F)(F)F)cn3)ccc2n1)N1CCC(O)C(F)(F)C1 (stereo not shown) [Example 190, (3,3-difluoro-4-hydroxypiperidin-1-yl)(6-{[5-(trifluoromethyl)pyridin-2-yl]oxy}quinolin-2-yl)methanone] |  | 4.92
16 | O=C(NCCC(=O)N1CCCCC1)c1ccc2cc(Oc3ccc(C(F)F)cn3)ccc2n1 [Example 463, 6-{[5-(difluoromethyl)pyridin-2-yl]oxy}-N-[3-oxo-3-(piperidin-1-yl)propyl]quinoline-2-carboxamide] | 5.95 | 
17 | CN(C(=O)c1ccc2cc(Oc3ccc(C(F)(F)F)cn3)ccc2n1)C1CS(=O)(=O)CC1O (stereo not shown) [Example 398, N-(4-hydroxy-1,1-dioxidotetrahydrothiophen-3-yl)-N-methyl-6-{[5-(trifluoromethyl)pyridin-2-yl]oxy}quinoline-2-carboxamide] | 5.21 | 
18 | O=C(NCC1CNC1)c1ccc2cc(Oc3ccc(C(F)(F)F)cn3)ccc2n1 [Example 470, N-(azetidin-3-ylmethyl)-6-{[5-(trifluoromethyl)pyridin-2-yl]oxy}quinoline-2-carboxamide] | 5.18 | 
19 | O=C(Nc1ncns1)c1ccc2cc(Oc3ccccn3)ccc2n1 [Example 80, 6-(pyridin-2-yloxy)-N-(1,2,4-thiadiazol-5-yl)quinoline-2-carboxamide] |  | < 4.70

Row | SMILES | pIC50 [1] | pIC50
20 | O=C(NCCCN1CCCC1=O)c1ccc2cc(Oc3ccc(C(F)(F)F)cn3)ccc2n1 [Example 608, N-[3-(2-oxopyrrolidin-1-yl)propyl]-6-{[5-(trifluoromethyl)pyridin-2-yl]oxy}quinoline-2-carboxamide] | 5.57 | 
21 | O=C(c1ccc2cc(Oc3ccc(C(F)(F)F)cn3)ccc2n1)N1CCN(S(=O)(=O)CC2CCOC2)CC1 (stereo not shown) [Example 385, {4-[(tetrahydrofuran-3-ylmethyl)sulfonyl]piperazin-1-yl}(6-{[5-(trifluoromethyl)pyridin-2-yl]oxy}quinolin-2-yl)methanone] | 5.63 | 
22 | CC(NC(=O)c1ccc2cc(Oc3ccc(C(F)(F)F)cn3)ccc2n1)C(=O)N(C)C (stereo not shown) [Example 579, N-[1-(dimethylamino)-1-oxopropan-2-yl]-6-{[5-(trifluoromethyl)pyridin-2-yl]oxy}quinoline-2-carboxamide] | 5.77 | 
23 | O=C(NCCn1ccnc1)c1ccc2cc(Oc3ccc(C(F)(F)F)cn3)ccc2n1 [Example 423, N-[2-(1H-imidazol-1-yl)ethyl]-6-{[5-(trifluoromethyl)pyridin-2-yl]oxy}quinoline-2-carboxamide] | 6.08 | 
24 | CN1CCN(C(=O)c2ccc3cc(Oc4ccc(C(F)(F)F)cn4)ccc3n2)CC1 [Example 211, (4-methylpiperazin-1-yl)(6-{[5-(trifluoromethyl)pyridin-2-yl]oxy}quinolin-2-yl)methanone] | 5.71 | 
25 | N#Cc1ccc(Oc2ccc3nc(C(=O)N[C@H]4CCOC4=O)ccc3c2)cc1 [Example 90, 6-(4-cyanophenoxy)-N-[(3S)-2-oxotetrahydrofuran-3-yl]quinoline-2-carboxamide] | 6.43 | 
26 | N#Cc1ccc(Oc2ccc3nc(C(=O)N[C@H]4CCC[C@@H](O)C4)ccc3c2)cc1 [Example 129, 6-(4-cyanophenoxy)-N-[(1S,3R)-3-hydroxycyclohexyl]quinoline-2-carboxamide] | 5.59 | 
27 | O=C(c1ccc2cc(Oc3ccc(C(F)(F)F)cn3)ccc2n1)N1C[C@@H](F)C[C@@H]1CO [Example 495, [(2R,4S)-4-fluoro-2-(hydroxymethyl)pyrrolidin-1-yl](6-{[5-(trifluoromethyl)pyridin-2-yl]oxy}quinolin-2-yl)methanone] | 5.77 | 
28 | O=C(c1ccc2cc(Oc3ccc(C(F)(F)F)cn3)ccc2n1)N1CCN(S(=O)(=O)C2CCS(=O)(=O)C2)CC1 (stereo not shown) [Example 386, {4[(1,1-dioxidotetrahydrothiophen-3-yl)sulfonyl]piperazin-1-yl}(6-{[5-(trifluoromethyl)pyridin-2-yl]oxy}quinolin-2-yl)methanone] | < 4.70 | 
29 | N#Cc1ccc(Oc2ccc3nc(C(=O)N[C@H]4CCS(=O)(=O)C4)ccc3c2)cc1 [Example 159, 6-(4-cyanophenoxy)-N-[(3S)-1,1-dioxidotetrahydrothiophen-3-yl]quinoline-2-carboxamide] |  | 6.14
30 | Cc1ccc(CNC(=O)c2ccc3cc(Oc4ccc(C#N)cc4)ccc3n2)cc1 [Example 103, 6-(4-cyanophenoxy)-N-(4-methylbenzyl)quinoline-2-carboxamide] | < 4.70 | 
31 | N#Cc1cnc(Oc2ccc3nc(C(=O)N4CCNCC4)ccc3c2)cn1 [Example 372, 5-{[2-(piperazin-1-ylcarbonyl)quinolin-6-yl]oxy}pyrazine-2-carbonitrile] | < 4.70 | 
32 | O=C(NC1CCSC1)c1ccc2cc(Oc3ccc(C(F)(F)F)cn3)ccc2n1 (stereo not shown) [Example 420, N-(tetrahydrothiophen-3-yl)-6-{[5-(trifluoromethyl)pyridin-2-yl]oxy}quinoline-2-carboxamide] | 5.61 | 
33 | CC[C@H]1CN(C(=O)c2ccc3cc(Oc4ccc(C(F)(F)F)nc4)ccc3n2)CCN1 [Example 553, [(3S)-3-ethylpiperazin-1-yl](6-{[6-(trifluoromethyl)pyridin-3-yl]oxy}quinolin-2-yl)methanone] |  | 6.02
34 | O=C(c1ccc2cc(Oc3ccc(C(F)F)cn3)ccc2n1)N1CC[C@H](F)C1 [Example 576, (6-{[5-(difluoromethyl)pyridin-2-yl]oxy}quinolin-2-yl) [(3S)-3-fluoropyrrolidin-1-yl]methanone] | 5.00 | 
35 | O=C(c1ccc2cc(Oc3ncccn3)ccc2n1)N1CCNCC1 [Example 242, piperazin-1-yl[6-(pyrimidin-2-yloxy)quinolin-2-yl]methanone] | < 4.70 | 
36 | O=C(c1ccc2cc(Oc3ccc(C(F)(F)F)cn3)ccc2n1)N1CCN(C2CC2)CC1 [Example 261, (4-cyclopropylpiperazin-1-yl)(6-{[5-(trifluoromethyl)pyridin-2-yl]oxy}quinolin-2-yl)methanone] | 5.20 | 
37 | O=C(c1ccc2cc(Oc3ccc(C(F)(F)F)nc3)ccc2n1)N1CC[C@@H](F)C1 [Example 548, [(3R)-3-fluoropyrrolidin-1-yl](6-{[6-(trifluoromethyl)pyridin-3-yl]oxy}quinolin-2-yl)methanone] | 5.39 | 
